Where two headings read alike, the source gives them in different places.
Key:
Type in all cases: cell-based
STING WT variant = target: T1, STING WT variant (Homo sapiens, UniProt Q86WV6); assay: SEAP reporter assay in HEK-Blue ISG KO-STING cells transfected with STING WT variant (Method 1); settings: 24 h, SEAP signal vs 0.5% DMSO
T1 construct: host or cells: HEK-Blue ISG KO-STING cells (Invivogen, hkb-kostg)
Excerpt: (§1) Activation of STING can be determined using a SEAP reporter assay in HEK-Blue™ ISG KO-STING cells (Invivogen, cat #hkb-kostg) transfected with plasmids expressing STING variants (WT & HAQ) (referred to WO2017/175147A1). STING variants (WT & HAQ) vector were constructed based on STING-232H vector (Origene, RC208418). GFP vector (VT2069) was bought from Youbio. The detailed protocol as follows: HEK-Blue™ ISG KO-STING cells were harvest and seeding into 96 well plate, the final cell number was 0.8×10^5 cells/well. Transfections were prepared using Lipofectamine 2000 (Invitrogen, Cat #11668-027) following the manufacturer's instructions (Lipo2000/DNA=1/10), 20 ul of transfection suspension containing 1 ng STING vector was added to cell culture plate and incubated at 37° C., 5% CO2 for 24 hours. After 24 hours' incubation, compounds were added at proper concentration, and the final DMSO concentration was 0.5%. After 24 h incubation, the supernatant was collected to detect SEAP signal using Great EscAPe SEAP chemiluminescence KIT (Clontech, cat #631738) and cells were collected to detect cell viability using CellTiter-Glo Luminescent Cell Viability Assay (Promega, cat #G7573) following the manufacturer's instructions. The data were described by the ratio of the stimulating signal of compounds to 0.5% DMSO.

STING = STING (Homo sapiens, UniProt Q86WV6); assay: IFN-β secretion from THP1 by STING activation (hIFNβ ELISA)
Sequence of STING (Q86WV6 whole entry): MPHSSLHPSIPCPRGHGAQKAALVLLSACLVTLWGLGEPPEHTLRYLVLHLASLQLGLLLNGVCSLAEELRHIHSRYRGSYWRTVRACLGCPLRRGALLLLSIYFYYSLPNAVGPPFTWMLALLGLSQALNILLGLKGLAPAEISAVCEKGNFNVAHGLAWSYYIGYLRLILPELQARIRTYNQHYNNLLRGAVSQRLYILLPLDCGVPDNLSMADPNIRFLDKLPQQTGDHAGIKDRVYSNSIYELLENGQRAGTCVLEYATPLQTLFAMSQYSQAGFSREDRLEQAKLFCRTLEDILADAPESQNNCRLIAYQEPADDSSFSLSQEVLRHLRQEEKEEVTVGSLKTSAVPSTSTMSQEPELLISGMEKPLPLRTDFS
Procedure: In this assay, activation of STING by compounds was evaluated by detecting their ability to stimulate the secretion of IFN-β (interferon-beta) from THP1. THP1 was purchased from National Collection of Authenticated Cell Cultures (Cat #TCHu 57). The top dose of compounds was setted according to their solubility. First, Compounds were 3 times diluted with medium, 8-dose points in total. The final DMSO concentration was 0.2%. THP1 during the logarithmic phase was resuspended to 2×10^6 cells/ml in assay medium. The THP1-cell suspension was dispensed into a 96-well U bottom plate containing 50 ul of compound diluted in medium. After 24 h incubation at 37° C., 5% CO2, the supernatant was collected. The concentration of IFN-β in the supernatant was measured using a human IFNβ ELISA KIT (R&D, DY814-05). The data was fitted with GraphPad Prism or XLfit to calculate EC50 values.

STING HAQ variant = target: T2, STING HAQ variant (Homo sapiens, UniProt Q86WV6, G230A/R293Q/R71H); assay: SEAP reporter assay in HEK-Blue ISG KO-STING cells transfected with STING HAQ variant (Method 1); settings: 24 h, SEAP signal vs 0.5% DMSO
T2 construct: host or cells: HEK-Blue ISG KO-STING cells (Invivogen, hkb-kostg)
T2 sequence (Q86WV6 whole entry R71H/G230A/R293Q): as the sequence (Q86WV6 whole entry) above, with R71H, G230A, R293Q counted along it
Excerpt: as §1

[1] = 1 ng STING vector, compound 2.5 uM
[2] = read-out: hIFNβ ELISA (EC50); THP1 cells; 24 h incubation; IFN-β in supernatant; top dose set according to solubility
[3] = 1 ng STING vector, compound 5 uM
[4] = THP1 cells; 24 h incubation; IFN-β in supernatant; top dose set according to solubility; read-out: hIFNβ ELISA (EC50)
[5] = THP1 cells; 24 h incubation; IFN-β in supernatant; top dose set according to solubility

| Fold change related to DMSO control WT (STING WT variant; [1]) | Fold change related to DMSO control HAQ (STING HAQ variant; [3]) | EC50 (STING; [4]) [µM] | Structure (SMILES) | further results |
| --- | --- | --- | --- | --- |
| 2.64 | 40.66 | 18.2 | CCn1nc(C)cc1C(=O)Nc1nc2cc(C(N)=O)cc(OCCCN(C)C)c2n1CCC[C@H]1COc2cc(C(N)=O)cc3nc(NC(=O)c4cc(C)nn4CC)n1c23 [Example 18, (S)-3-(3-(5-carbamoyl-7-(3-(dimethylamino)propoxy)-2-(1-ethyl-3-methyl-1H-pyrazole-5-carboxamido)-1H-benzo[d]imidazol-1-yl)propyl)-2-(1-ethyl-3-methyl-1H-pyrazole-5-carboxamido)-3,4-dihydro-5-oxa-1,2a-diazaacenaphthylene-7-carboxamide] | – |
| 1.95 | 46.51 | 0.7 | CCn1nc(C)cc1C(=O)Nc1nc2cc(C(N)=O)cc(OCCOCCOC)c2n1CCC[C@H]1COc2cc(C(N)=O)cc3nc(NC(=O)c4cc(C)nn4CC)n1c23 [Example 25, (S)-3-(3-(5-carbamoyl-2-(1-ethyl-3-methyl-1H-pyrazole-5-carboxamido)-7-(2-(2-methoxyethoxy)ethoxy)-1H-benzo[d]imidazol-1-yl)propyl)-2-(1-ethyl-3-methyl-1H-pyrazole-5-carboxamido)-3,4-dihydro-5-oxa-1,2a-diazaacenaphthylene-7-carboxamide] | – |
| 1.99 | 27.10 | 6.7 | CCn1nc(C)cc1C(=O)Nc1nc2cc(C(N)=O)cc(OCCCN(C)C(=O)CN3CCOCC3)c2n1CCC[C@H]1COc2cc(C(N)=O)cc3nc(NC(=O)c4cc(C)nn4CC)n1c23 [Example 29, (S)-3-(3-(5-carbamoyl-2-(1-ethyl-3-methyl-1H-pyrazole-5-carboxamido)-7-(3-(N-methyl-2-morpholinoacetamido)propoxy)-1H-benzo[d]imidazol-1-yl)propyl)-2-(1-ethyl-3-methyl-1H-pyrazole-5-carboxamido)-3,4-dihydro-5-oxa-1,2a-diazaacenaphthylene-7-carboxamide] | – |
| 1.79 | 26.64 | > 3 | CCn1nc(C)c(Br)c1C(=O)Nc1nc2cc(C(N)=O)cc3c2n1[C@@H](CCCn1c(NC(=O)c2cc(C)nn2CCF)nc2cc(C(N)=O)cc(OCCCOC)c21)CO3 [Example 13, (S)-2-(4-bromo-1-ethyl-3-methyl-1H-pyrazole-5-carboxamido)-3-(3-(5-carbamoyl-2-(1-(2-fluoroethyl)-3-methyl-1H-pyrazole-5-carboxamido)-7-(3-methoxypropoxy)-1H-benzo[d]imidazol-1-yl)propyl)-3,4-dihydro-5-oxa-1,2a-diazaacenaphthylene-7-carboxamide] | – |
| 2.11 | 11.61 | – | CCn1nc(C)cc1C(=O)Nc1nc2cc(C(N)=O)cc(OCCCNC(=O)CN(C)C)c2n1CCC[C@H]1COc2cc(C#N)cc3nc(NC(=O)c4cc(C)nn4CC)n1c23 [Example 15, (S)-1-(3-(7-cyano-2-(1-ethyl-3-methyl-1H-pyrazole-5-carboxamido)-3,4-dihydro-5-oxa-1,2a-diazaacenaphthylen-3-yl)propyl)-7-(3-(2-(dimethylamino)acetamido)propoxy)-2-(1-ethyl-3-methyl-1H-pyrazole-5-carboxamido)-1H-benzo[d]imidazole-5-carboxamide] | hIFNβ ELISA (EC50, μM) (STING; [5]): inactive |
| – | – | – | CCn1nc(C)cc1C(=O)Nc1nc2cc(C(N)=O)cc(OC)c2n1CCC[C@@H]1COc2cc(C(N)=O)cc3nc(NC(=O)c4cc(C)nn4CC)n1c23 [Example 4, (R)-3-(3-(5-Carbamoyl-2-(1-ethyl-3-methyl-1H-pyrazole-5-carboxamido)-7-methoxy-1H-benzo[d]imidazol-1-yl)propyl)-2-(1-ethyl-3-methyl-1H-pyrazole-5-carboxamido)-3,4-dihydro-5-oxa-1,2a-diazaacenaphthylene-7-carboxamide] | Fold change related to DMSO control WT (STING WT variant; compound 26.8 uM): 2.22; hIFNβ ELISA (EC50, μM) (STING; [5]): inactive; Fold change related to DMSO control HAQ (STING HAQ variant; compound 26.8 uM): 10.21 |
| – | – | 3.7 | CCn1nc(C)cc1C(=O)Nc1nc2cc(C(N)=O)cc(OC)c2n1CCC[C@H]1COc2cc(C(N)=O)cc3nc(NC(=O)c4cc(C)nn4CC)n1c23 [Example 5, (S)-3-(3-(5-carbamoyl-2-(1-ethyl-3-methyl-1H-pyrazole-5-carboxamido)-7-methoxy-1H-benzo[d]imidazol-1-yl)propyl)-2-(1-ethyl-3-methyl-1H-pyrazole-5-carboxamido)-3,4-dihydro-5-oxa-1,2a-diazaacenaphthylene-7-carboxamide] | Fold change related to DMSO control WT (STING WT variant; compound 22.1 uM): 1.41; Fold change related to DMSO control HAQ (STING HAQ variant; compound 22.1 uM): 22.85 |
| 2.27 | 14.14 | 2.6 | CCn1nc(C)cc1C(=O)Nc1nc2cc(C(N)=O)cc(OCCCOC)c2n1CCC[C@H]1COc2cc(C(N)=O)cc3nc(NC(=O)c4c(Br)c(C)nn4CC)n1c23 [Example 9, (S)-2-(4-bromo-1-ethyl-3-methyl-1H-pyrazole-5-carboxamido)-3-(3-(5-carbamoyl-2-(1-ethyl-3-methyl-1H-pyrazole-5-carboxamido)-7-(3-methoxypropoxy)-1H-benzo[d]imidazol-1-yl)propyl)-3,4-dihydro-5-oxa-1,2a-diazaacenaphthylene-7-carboxamide] | – |
| 1.96 | 33.34 | > 13 | CCn1nc(C)cc1C(=O)Nc1nc2cc(C(N)=O)cc(OCCCNS(C)(=O)=O)c2n1CCC[C@H]1COc2cc(C(N)=O)cc3nc(NC(=O)c4cc(C)nn4CC)n1c23 [Example 30, (S)-3-(3-(5-carbamoyl-2-(1-ethyl-3-methyl-1H-pyrazole-5-carboxamido)-7-(3-(methylsulfonamido)propoxy)-1H-benzo[d]imidazol-1-yl)propyl)-2-(1-ethyl-3-methyl-1H-pyrazole-5-carboxamido)-3,4-dihydro-5-oxa-1,2a-diazaacenaphthylene-7-carboxamide] | – |
| – | – | – | CCn1nc(C)cc1C(=O)Nc1nc2cc(C(N)=O)cc(OCCCOC)c2n1CCCC[C@H]1COc2cc(C(N)=O)cc3nc(NC(=O)c4cc(C)nn4CC)n1c23 [Example 8, (S)-3-(4-(5-carbamoyl-2-(1-ethyl-3-methyl-1H-pyrazole-5-carboxamido)-7-(3-methoxypropoxy)-1H-benzo[d]imidazol-1-yl)butyl)-2-(1-ethyl-3-methyl-1H-pyrazole-5-carboxamido)-3,4-dihydro-5-oxa-1,2a-diazaacenaphthylene-7-carboxamide] | Fold change related to DMSO control WT (STING WT variant; compound 4.7 uM): 2.08; hIFNβ ELISA (EC50, μM) (STING; [5]): inactive; Fold change related to DMSO control HAQ (STING HAQ variant; compound 4.7 uM): 8.09 |

| Structure (SMILES) | Fold change related to DMSO control WT (STING WT variant; [1]) | Fold change related to DMSO control HAQ (STING HAQ variant; [3]) | EC50 (STING; [4]) [µM] | further results |
| --- | --- | --- | --- | --- |
| CCn1nc(C)cc1C(=O)Nc1nc2cc(C(N)=O)cc(OCCCN)c2n1CCC[C@H]1COc2cc(C(N)=O)cc3nc(NC(=O)c4cc(C)nn4CC)n1c23.Cl [Example 14, (S)-3-(3-(7-(3-aminopropoxy)-5-carbamoyl-2-(1-ethyl-3-methyl-1H-pyrazole-5-carboxamido)-1H-benzo[d]imidazol-1-yl)propyl)-2-(1-ethyl-3-methyl-1H-pyrazole-5-carboxamido)-3,4-dihydro-5-oxa-1,2a-diazaacenaphthylene-7-carboxamide] | 2.17 | 16.68 | – | EC50 (STING; [2]): > 13.7 µM |
| CCn1nc(C)cc1C(=O)Nc1nc2cc(C(N)=O)cc(OCCCNC)c2n1CCC[C@H]1COc2cc(C(N)=O)cc3nc(NC(=O)c4cc(C)nn4CC)n1c23.Cl [Example 17, (S)-3-(3-(5-carbamoyl-2-(1-ethyl-3-methyl-1H-pyrazole-5-carboxamido)-7-(3-(methylamino)propoxy)-1H-benzo[d]imidazol-1-yl)propyl)-2-(1-ethyl-3-methyl-1H-pyrazole-5-carboxamido)-3,4-dihydro-5-oxa-1,2a-diazaacenaphthylene-7-carboxamide Hydrochloride] | 2.35 | 33.85 | – | EC50 (STING; [2]): 9.8 µM |

Reference: patent US12364702B2, “Highly active sting protein agonist compound” (ADLAI NORTYE BIOPHARMA CO., LTD., priority 2018, dated 2025)
